According to patent US20050059615A1, “Transmucosal dosage forms for brain-targeted steroid chemical delivery systems” (priority 2003, published 2005):
Read-outs that look alike come from different tables or passages of the source.

What was measured:
[1] = tested on: ovariectomized female rats; assay: Lordosis quotient, female rat sexual behavior after ovariectomy; format: in vivo, Sprague Dawley rats
Description: Adult female Sprague Dawley rats (220-250 g) from Charles River Hungary Ltd., Godollo, Hungary, were used. Animals were kept in community cages (4 animals/cage) in a climate-controlled room (23∀2EC, 50-60% humidity), with a 14 hour light, 10 hour dark cycle of artificial lighting, using reversed light/dark cycle. Food and water were available ad libitum.
After a minimum five-day acclimatization period, animals were ovariectomized under ether anesthesia, then were left to recover for 3 weeks before testing (reconvalescence). All animals were treated in accordance with the guidelines of the European Communities Council Directive (86/609/EEC) and studies were permitted by the Institutional Animal Care Commission.
Estradiol benzoate and progesterone were obtained from Sigma Chemical Co. Inc., Budapest, Hungary. 2-Hydroxypropyl-β-cyclodextrin was purchased from Cerestar Inc., Hammond, Ind., US. […] E2-CDS as a 3% complex with HPβCD (E2-CDS-CD) was dissolved in distilled water and diluted with 27% HPβCD solution. E2-CDS-CD was synthesized by Alchem Laboratories Corporation, Alachua, Fla., US, using the procedure of Example 2 above.
(§1) After recovery from surgery, ovariectomized female rats were divided into four groups and treated once a day for five days intravenously, via a bolus injection through the tail vein, as follows: (1) control, 27% HPβCD solution; (2) 0.003 mg/kg E2-CDS dissolved in 27% HPβCD solution; (3) 0.01 mg/kg E2-CDS dissolved in 27% HPβCD solution; and (4) 0.03 mg/kg E2-CDS dissolved in 27% HPβCD solution. A minimal number of ovariectomized (8 to 12) females were used per group. Intravenous treatments either with E2-CDS or HPβCD (controls) were carried out daily for 5 days beginning 2 days prior to the first day of behavior observations, in a volume of 0.05 mL/100 g body weight.
The behavior test was conducted in a plexiglass observation cage during the dark cycle. During behavioral observations, only a dim red light was on.
(§2) An experienced and active male rat was placed in the arena 5 minutes prior to the female. […] The lordosis quotient (LQ) expresses the estrogen effect on sexual receptivity and was calculated as follows: LQ=100×number of lordoses/10 mounts The observation of the sexual behavior of each female was carried out, in the case of E2-CDS, every day for 22 days; in the case of EB, investigations were carried out every day for 10 days. […] Citrated blood samples were taken by retro-orbital sinus puncture under light ether anesthesia. The samples were stored at 4EC for one hour, then centrifuged at 1000 g for 10 minutes. Plasma was separated and stored at −80EC until assayed. Plasma LH concentrations from individual samples were measured by double antibody radioimmunoassay kits obtained from Amersham Pharmacia Biotech, Rome, Italy. […] The limit of detection was 15 pg/mL.
(§3) Behavioral changes were analyzed using the Mann-Whitney U test (Siegel, Nonparametric Statistics for the Behavioral Sciences, New York; McGraw-Hill Book Company, Inc., 1956). The Fisher exact test was used for percentage comparisons (Zar, Biostatistical Analysis, Prentice Hall, Inc., Englewood Cliffs, N.J., 1974). Serum LH data were analyzed for each time and treatment group by analysis of variance (ANOVA) followed by Bonferroni posthoc test.

LH [2] = assay: Plasma LH in ovariectomized female rats (radioimmunoassay); format: in vivo, Sprague Dawley rats
Description: as §1, §2, §3

[3] = Phase I clinical study: serum estradiol (E2) levels; format: in vivo, postmenopausal women; conditions: 2.86 mg buccal, repeated dosing, both groups
Excerpt: (§4) A brief evaluation of the results follows:

LH [4] = assay: Phase I clinical study: LH suppression; format: in vivo, postmenopausal women
Description: (§5) Even more recently, in a Phase I clinical study of postmenopausal women, two different administration regimens of a 2.86 mg E2-CDS buccal delivery tablet were evaluated for safety and effects on hormone levels. The subjects were 12 healthy postmenopausal volunteers, divided into two groups of six. In Group A, women were dosed once daily for 10 days (10 doses); in Group B, women were dosed once every other day for 13 days (7 doses).

[5] = tested on: SHBG (Sex Hormone-binding Globulin); assay: Phase I clinical study: SHBG; format: in vivo, postmenopausal women
Excerpt: as §4

[6] = Phase I clinical study: safety and tolerance; format: in vivo, postmenopausal women; conditions: 2.86 mg buccal, 12 subjects, both regimens
Excerpt: as §4

[7] = Plasma estradiol in orchidectomized male rats (radioimmunoassay); format: in vivo, Sprague Dawley rats; conditions: limit of detection 15 pg/mL
Description: Four weeks following orchidectomy, groups of rats were treated with one of the following drug doses via tail vein injection: E2-CDS 0.03, 0.3, and 3 mg/kg. Blood samples were collected by orbital sinus puncture under light ether anesthesia. The samples were stored at 4EC for one hour and centrifuged at 1,000 g for 10 minutes. Plasma was separated and stored at −80EC until assayed. Plasma LH concentrations from individual samples were measured by double antibody radioimmunoassay kits obtained from Amersham Pharmacia Biotech, Rome, Italy. […] The limit of detection was 15 pg/mL.
as §3
The testing described above was repeated using a dose of 0.03 mg/kg administered as a single i.v. injection, and a dose of 0.01 mg/kg with daily i.v. administration for 10 days. E2-CDS stock solution (40%) was diluted in 27% HPβCD solution.

[8] = average 7 degrees of substitution, cited from earlier work
castrated male rats = conditions: single intravenous dose of 3 mg/kg; cited from earlier work
2OHE1/16OHE1 = assay: Phase I clinical study: urinary estrone and 2OHE1/16OHE1
Description: as §5
Urine was collected for 24 hours on day 1 in both groups, and overnight (8 hours) on day 10 (Group A) and on day 13 (Group B), respectively, to determine the amounts of voided urinary estrone (E1), 2OHE1, 16OHE, and the ratios of 2OHE1 to 16OHE1.

[9] = 0.003 mg/kg i.v. once a day for 5 days
[10] = 0.01 mg/kg i.v. once a day for 5 days
[11] = 0.03 mg/kg i.v. once a day for 5 days

SMILES: CN1C=CCC(C(=O)O[C@H]2CC[C@H]3[C@@H]4CCc5cc(O)ccc5[C@H]4CC[C@]23C)=C1 [E2-CDS, 17β-[(1-methyl-1,4-dihydro-3-pyridinyl)carbonyloxy]estra-1,3,5(10)-trien-3-ol]
- effect on lordosis quotient [1, 9]: slightly enhanced
- period of the LQ effect [1, 9]: 3 to 18 days
- statistical significance of LQ effect [1, 9]: not statistically significant
- day till which the LQ increase lasted (not statistically significant after day 11) [1, 10]: 15 days
- effect on lordosis quotient LQ [1, 10]: significantly enhanced
- period of the LQ effect [1, 10]: day 5 to day 11
- effect on lordosis quotient LQ [1, 11]: significantly enhanced
- maximal value of lordosis quotient (LQ) [1, 11]: 73
- period over which the LQ effect lasted [1, 11]: day 3 to day 18
- duration of plasma LH suppression (LH [2]; 0.003 mg/kg i.v. daily for 5 days): up to 15 days
- duration of statistically significant plasma LH suppression (LH [2]; 0.03 mg/kg i.v. daily for 5 days): up to 18 days
- effect on plasma LH levels (LH [2]; all dosage levels tested: 0.003, 0.01 and 0.03 mg/kg i.v. daily for 5 days): suppressed
- accumulation of trough E2 levels [3]: no signs of accumulation
- post-study LH levels (LH [4]; 72 hours after the last dose): not different any more from screening/baseline values
- time of maximum LH depression (LH [4]; Group A): 7.3±5.3 hours post-dose
- time of maximum LH depression (LH [4]; Group B): 7.3±2.7 hours post-dose
- maximum decrease in LH from baseline (LH [4]; first 24 hours, 2.86 mg buccal, Group A): 13.8±4.9 mIU/mL
- maximum decrease in LH from baseline (LH [4]; first 24 hours, 2.86 mg buccal, Group B): 12.7±6.8 mIU/mL
- decrease in LH levels from baseline (LH [4]; first 24 hours, 2.86 mg buccal, Groups A and B): 35-40%
- SHBG concentration higher than at baseline on day 1 ([5]; Group A, day 13): 22.2%
- SHBG concentration higher than at baseline on day 1 ([5]; Group B, day 16): 41.2%
- adverse events (AEs) in total [6]: seven
- seriousness of adverse events [6]: no serious AE was observed
- estradiol levels after treatment ([7]; 0.01 mg/kg daily for 10 days i.v.): below the limit of detection
- estradiol levels after treatment ([7]; 0.03 mg/kg single dose i.v., repeated study): below the limit of detection
- estradiol levels after treatment ([7]; 0.03 mg/kg single i.v., first study): below the limit of detection
- estradiol levels after treatment ([7]; 0.3 mg/kg single i.v., first study): below the limit of detection
- solubility of E2-CDS (phase solubility data point) ([8]; 20% w/v HPβCD): 6.73 mg/mL
- solubility of E2-CDS (phase solubility data point) ([8]; 40% w/v HPβCD): 16.36 mg/mL
- solubility of E2-CDS (phase solubility data point) ([8]; 60% w/v HPβCD): 30.19 mg/mL
- duration of improved masculine sexual behavior (castrated male rats): 28 days
- increase of the ratio of 2OHE1 to 16OHE1 during treatment (2OHE1/16OHE1; Group A): 63.6%
- increase of the ratio of 2OHE1 to 16OHE1 during treatment (2OHE1/16OHE1; Group B): 54.7%
